In patent US20140296143A1, “Angiotensin-(1-7) As A Chemoprevention Agent” (Wake Forest Innovations, priority 2008, published 2014):
Square brackets hold non-standard residues; d marks the D form. Ends that are not written are not given here.

Legend:
[1] = test system: SK-LU-1 lung cancer cells; type: cell-based, human; conditions: for effect of antagonist on inhibition of serum-stimulated growth by Ang-(1-7): SK-LU-1, antagonist pretreatment (1 μM); for effect on serum-stimulated ^3H-thymidine incorporation: SK-LU-1, peptide at 1 or 100 nM
Experimental: Cells were grown to subconfluence in either 24-well cluster plates or 100 mm dishes and made quiescent by treatment for 48 h with serum-depleted growth media, prior to the experiments outlined below to measure cell growth (^3H-thymidine incorporation), cell signaling or apoptosis.
Subsequently, the cell monolayer was washed with cold phosphate-buffered saline (PBS; 50 mM NaPO4, 120 mM NaCl, pH=7.2). The adherent cells were precipitated with cold 10% TCA (4° C. for 30 min) and dissolved in 0.2% SDS in 0.1 N NaOH.
During an additional 4 h, cell monolayers were pulsed with ^3H-thymidine (0.25 μCi/well) and harvested.

VSMCs = conditions: pretreatment; U.S. Pat. No. 7,375,073; cited from earlier work
AT1 angiotensin receptor = conditions: literature; cited from earlier work
AT2 angiotensin receptor = target: T1, AT2 angiotensin receptor (Homo sapiens, UniProt P50052); conditions: literature; cited from earlier work
T1 sequence (P50052 1-363): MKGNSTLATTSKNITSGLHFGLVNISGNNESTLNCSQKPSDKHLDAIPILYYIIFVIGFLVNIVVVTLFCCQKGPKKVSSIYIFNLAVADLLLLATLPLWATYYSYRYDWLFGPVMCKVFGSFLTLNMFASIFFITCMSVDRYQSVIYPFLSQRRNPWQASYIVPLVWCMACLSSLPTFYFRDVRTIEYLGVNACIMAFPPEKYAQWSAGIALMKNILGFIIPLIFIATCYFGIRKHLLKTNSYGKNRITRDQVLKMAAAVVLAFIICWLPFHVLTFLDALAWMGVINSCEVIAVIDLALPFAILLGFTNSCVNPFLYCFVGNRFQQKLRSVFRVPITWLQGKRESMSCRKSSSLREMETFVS

EA.hy.926 cells = assay: Tube formation of endothelial cells in Matrigel; type: cell-based, human; conditions: selective Ang-(1-7) receptor antagonist
Experimental: These cells are a transformed human endothelial cell line derived from umbilical vein endothelial cells. They retain their endothelial phenotype and were previously used to study angiogenesis.
After a 16 h incubation period to allow tube formation, cultures were photographed and branch points were counted, to quantify tube formation.

Sequence of AT1 angiotensin receptor (P30556 whole entry): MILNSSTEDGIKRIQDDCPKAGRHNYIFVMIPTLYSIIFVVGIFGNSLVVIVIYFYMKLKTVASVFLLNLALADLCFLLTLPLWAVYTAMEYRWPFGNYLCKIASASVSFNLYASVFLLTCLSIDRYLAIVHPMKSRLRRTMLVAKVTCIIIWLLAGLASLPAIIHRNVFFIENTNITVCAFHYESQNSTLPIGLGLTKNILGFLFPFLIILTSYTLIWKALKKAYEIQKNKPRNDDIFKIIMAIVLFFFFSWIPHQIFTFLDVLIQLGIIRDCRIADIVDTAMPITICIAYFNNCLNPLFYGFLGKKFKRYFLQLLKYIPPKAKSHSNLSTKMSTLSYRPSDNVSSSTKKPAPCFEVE

## CCCCc1nc(Cl)c(CO)n1Cc1ccc(-c2ccccc2-c2nn[nH]n2)cc1 [Losartan]
[1]
  effect of antagonist on inhibition of serum-stimulated growth by Ang-(1-7): neither AT1 nor AT2 angiotensin receptor antagonists Losartan and PD123177, respectively, were effective

## Cc1cc(Cn2cnc3c2CC(C(=O)O)N(C(=O)C(c2ccccc2)c2ccccc2)C3)ccc1N (stereo not drawn) [PD123177]
[1]
  effect of antagonist on inhibition of serum-stimulated growth by Ang-(1-7): neither AT1 nor AT2 angiotensin receptor antagonists Losartan and PD123177, respectively, were effective

## CCN(CC)CC.Nc1ncnc2c1ncn2[C@@H]1O[C@@H]2COP(O)(=S)O[C@H]2[C@H]1O (stereo partly drawn) [Rp-cAMPS, Rp-adenosine-3′,5′-cyclic monphospho-phorothioate triethylamine salt]
VSMCs
  effect on the reduction in serum-stimulated ^3H-thymidine incorporation by Ang-(1-7) or carbacyclin: completely blocked

## Arg-Val-Tyr-Ile-His-Pro-Phe (RVYIHPF; listed as Homo sapiens) [Ang-(2-8)]
[1]
  effect on serum-stimulated ^3H-thymidine incorporation: ineffective

## Asp-Arg-Val-Tyr-Ile-His-Pro-Phe [Ang II]
[1]
  effect on serum-stimulated ^3H-thymidine incorporation: ineffective

## DRVYIHPFHL [Ang I]
[1]
  effect on serum-stimulated ^3H-thymidine incorporation: ineffective

## Val-Tyr-Ile-His-Pro (VYIHP; listed as Homo sapiens) [Ang-(3-7)]
[1]
  effect on serum-stimulated ^3H-thymidine incorporation: ineffective

## Val-Tyr-Ile-His-Pro-Phe (VYIHPF; listed as Homo sapiens) [Ang-(3-8)]
[1]
  effect on serum-stimulated ^3H-thymidine incorporation: ineffective

## [D-Ala^7]-Ang-(1-7): a modified form of Ang-(1-7), selective Ang-(1-7) antagonist (DRVYIH[dA]) [reference compound]
[1]
  effect of antagonist on inhibition of serum-stimulated growth by Ang-(1-7): blocked
AT1 angiotensin receptor
  competition at the AT1 receptor: poor competitor
AT2 angiotensin receptor
  competition at the AT2 receptor: poor competitor

## [D-Pro^7]-Ang-(1-7): a selective Ang-(1-7) receptor antagonist [reference compound]
EA.hy.926 cells
  effect on Ang-(1-7)-mediated reduction in tube formation: prevented
